Data from patent US11352339B2 (MISSION THERAPEUTICS LIMITED, priority 2016, dated 2022).

molecular target: USP30 (Homo sapiens (Human), UniProt Q70CQ3); experiment: USP30 Biochemical IC50 Assay; settings: fluorescence polarisation, TAMRA labelled peptide linked to ubiquitin; 30 min pre-incubation, read after 2 h; read-out: IC50 range
In short: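 Fluorescence polarisation cleavage assay, duplicate wells: substrate is a TAMRA peptide joined to ubiquitin by an iso-peptide bond (50 nM), added after 30 min room-temperature compound–enzyme incubation. Readings at 540/590 nm immediately and at 2 h.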

Chain of USP30 (Q70CQ3 57-517): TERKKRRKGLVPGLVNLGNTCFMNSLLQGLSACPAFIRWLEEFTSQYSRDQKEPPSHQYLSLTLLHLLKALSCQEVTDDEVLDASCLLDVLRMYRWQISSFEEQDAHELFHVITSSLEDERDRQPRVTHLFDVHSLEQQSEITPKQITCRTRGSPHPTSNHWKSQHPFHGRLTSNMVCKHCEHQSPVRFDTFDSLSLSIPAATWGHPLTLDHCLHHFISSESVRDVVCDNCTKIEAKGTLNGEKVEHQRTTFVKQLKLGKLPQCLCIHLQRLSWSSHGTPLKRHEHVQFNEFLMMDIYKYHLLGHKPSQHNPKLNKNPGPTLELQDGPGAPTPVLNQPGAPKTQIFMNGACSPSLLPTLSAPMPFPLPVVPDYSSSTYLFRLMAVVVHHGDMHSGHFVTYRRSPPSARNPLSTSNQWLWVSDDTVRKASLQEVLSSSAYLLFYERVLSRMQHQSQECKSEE

Row | SMILES | IC50 [µM]
1 | N#Cc1cccc(-c2nccc(-c3nc([C@@H]4CCCN4C#N)no3)n2)c1 [Example 186, (S)-2-(5-(2-(3-Cyanophenyl)pyrimidin-4-yl)-1,2,4-oxadiazol-3-yl)pyrrolidine-1-carbonitrile] | < 0.1
2 | Cn1cnc(-c2cccc(-c3cc(C4CCN(C#N)C4)n[nH]3)c2)c1 (centres unmarked) [Example 34, 3-(5-(3-(1-Methyl-1H-imidazol-4-yl)phenyl)-1H-pyrazol-3-yl)pyrrolidine-1-carbonitrile] | 1 to 10
3 | N#CN1CCC(c2nc3cc(-c4ccccc4)cnc3[nH]2)C1 (centres unmarked) [Example 83, 3-(6-Phenyl-3H-imidazo[4,5-b]pyridin-2-yl)pyrrolidine-1-carbonitrile] | 0.1 to 1
4 | N#Cc1cccc(-c2ccc3nc(C4CCN(C#N)C4)[nH]c3c2)c1 (centres unmarked) [Example 72, 3-(6-(3-Cyanophenyl)-1H-benzo[d]imidazol-2-yl)pyrrolidine-1-carbonitrile] | 0.1 to 1
5 | N#Cc1cccc(C2CN(c3noc(C4CCN(C#N)C4)n3)C2)c1 (centres unmarked) [Example 197, 3-(3-(3-(3-Cyanophenyl)azetidin-1-yl)-1,2,4-oxadiazol-5-yl)pyrrolidine-1-carbonitrile] | 0.1 to 1
6 | N#CN1CCC(c2cc(-c3cccc(-c4ccccc4)c3)no2)C1 (single isomer, unassigned) [Example 118, 3-(3-([1,1′-Biphenyl]-3-yl)isoxazol-5-yl)pyrrolidine-1-carbonitrile] | < 0.1
7 | N#Cc1cccc(-c2ccnc(-c3nc(C4CCCN4C#N)no3)c2)c1 (centres unmarked) [Example 172, 2-(5-(4-(3-Cyanophenyl)pyridin-2-yl)-1,2,4-oxadiazol-3-yl)pyrrolidine-1-carbonitrile] | 0.1 to 1
8 | Cc1cn(-c2ccc3n(c2=O)CCN([C@@H]2CCN(C#N)C2)C3=O)cn1 [Example 121, (R)-3-(7-(4-Methyl-1H-imidazol-1-yl)-1,6-dioxo-1,3,4,6-tetrahydro-2H-pyrido[1,2-a]pyrazin-2-yl)pyrrolidine-1-carbonitrile] | 1 to 10
9 | CN(C)S(=O)(=O)c1cccc(-c2cccc(-c3nc(C4CCCN4C#N)no3)c2)c1 (centres unmarked) [Example 150, 3′-(3-(1-Cyanopyrrolidin-2-yl)-1,2,4-oxadiazol-5-yl)-N,N-dimethyl-[1,1′-biphenyl]-3-sulfonamide] | 1 to 10
10 | CN1CCN(c2ccc(-c3cc(C4CCN(C#N)C4)[nH]n3)cc2)CC1 (centres unmarked) [Example 5, 3-(3-(4-(4-Methylpiperazin-1-yl)phenyl)-1H-pyrazol-5-yl)pyrrolidine-1-carbonitrile] | 0.1 to 1
11 | N#Cc1ccccc1-c1cccc(-c2nc(C3CCCN3C#N)no2)c1 (centres unmarked) [Example 155, 2-(5-(2′-Cyano-[1,1′-biphenyl]-3-yl)-1,2,4-oxadiazol-3-yl)pyrrolidine-1-carbonitrile] | 0.1 to 1
12 | Cc1ccc(S(=O)(=O)NCc2ccccc2)cc1-c1ccc2oc([C@@H]3CCCN3C#N)nc2c1 [Example 139, (S)-N-Benzyl-3-(2-(1-cyanopyrrolidin-2-yl)-benzo[d]oxazol-5-yl)-4-methyl-benzenesulfonamide] | 1 to 10
13 | N#CN1CCC(c2cc(-c3cncc(-c4ccccc4)c3)[nH]n2)C1 (centres unmarked) [Example 36, 3-(5-(5-Phenylpyridin-3-yl)-1H-pyrazol-3-yl)pyrrolidine-1-carbonitrile] | 0.1 to 1
14 | Cc1ccc2cc(-c3nc(C4CCN(C#N)C4)no3)ccc2n1 (centres unmarked) [Example 56, 3-(5-(2-Methylquinolin-6-yl)-1,2,4-oxadiazol-3-yl)pyrrolidine-1-carbonitrile] | 1 to 10
15 | N#CN1CCC(c2noc(-c3cc(Cl)cc(OC(F)(F)F)c3)n2)C1 (centres unmarked) [Example 57, 3-(5-(3-Chloro-5-(trifluoromethoxy)phenyl)-1,2,4-oxadiazol-3-yl)pyrrolidine-1-carbonitrile] | 0.1 to 1
16 | C[C@H]1CN(C#N)C[C@@H]1c1nc2cc(-c3ccccc3)ccc2[nH]1 (single isomer, unassigned) [Example 104, Trans-3-methyl-4-(5-phenyl-1H-benzo[d]imidazol-2-yl)pyrrolidine-1-carbonitrile] | 0.1 to 1
17 | Cn1cc(-c2cccc(-c3cc(C4CCN(C#N)C4)n[nH]3)c2)cn1 (centres unmarked) [Example 31, 3-(5-(3-(1-Methyl-1H-pyrazol-4-yl)phenyl)-1H-pyrazol-3-yl)pyrrolidine-1-carbonitrile] | 1 to 10
18 | N#CN1CCC(c2cc(-c3ccnc(-c4ccccc4)c3)[nH]n2)C1 (centres unmarked) [Example 38, 3-(5-(2-Phenylpyridin-4-yl)-1H-pyrazol-3-yl)pyrrolidine-1-carbonitrile] | 0.1 to 1
19 | N#CN1CCCC1c1nnc(-c2cccc(-c3ccccc3)c2)o1 (centres unmarked) [Example 140, 2-(5-([1,1′-Biphenyl]-3-yl)-1,3,4-oxadiazol-2-yl)pyrrolidine-1-carbonitrile] | 1 to 10
20 | CNC(=O)c1ccc(-c2ccc3nc(C4CCN(C#N)C4)[nH]c3c2)cc1 (centres unmarked) [Example 75, 4-(2-(1-Cyanopyrrolidin-3-yl)-1H-benzo[d]imidazol-6-yl)-N-methylbenzamide] | 0.1 to 1
21 | CNC(=O)c1cc(-c2ccccc2)cc2oc([C@@H]3CCCN3C#N)nc12 [Example 122, (S)-2-(1-Cyanopyrrolidin-2-yl)-N-methyl-6-phenylbenzo[d]oxazole-4-carboxamide] | 10 to 100

Row | SMILES | IC50 [µM]
22 | C[C@@H]1CN(C#N)C[C@H]1c1n[nH]c(-c2cccc(-c3ccccc3)c2)n1 (relative stereo) [Example 114, Trans-3-(3-([1,1′-biphenyl]-3-yl)-1H-1,2,4-triazol-5-yl)-4-methylpyrrolidine-1-carbonitrile] | < 0.1
23 | N#CN1CCC(c2nc3cc(-c4ccncc4)cnc3[nH]2)C1 (single isomer, unassigned) [Example 82, 3-(6-(Pyridin-4-yl)-3H-imidazo[4,5-b]pyridin-2-yl)pyrrolidine-1-carbonitrile] | 1 to 10
24 | Cc1ccc(-c2cccc(-c3nc(C4CCCN4C#N)no3)c2)cn1 (centres unmarked) [Example 154, 2-(5-(3-(6-Methylpyridin-3-yl)phenyl)-1,2,4-oxadiazol-3-yl)pyrrolidine-1-carbonitrile] | 0.1 to 1
25 | N#CN1CCC(c2nc3cc(-c4ccncc4)cnc3[nH]2)C1 (centres unmarked) [Example 80, 3-(6-(Pyridin-4-yl)-3H-imidazo[4,5-b]pyridin-2-yl)pyrrolidine-1-carbonitrile] | 0.1 to 1
26 | N#Cc1ccc(-c2cc(C3CCN(C#N)C3)[nH]n2)cc1 (centres unmarked) [Example 2, 3-(3-(4-Cyanophenyl)-1H-pyrazol-5-yl)pyrrolidine-1-carbonitrile] | 1 to 10
27 | N#Cc1ccc(-c2cnc3[nH]c(C4CCN(C#N)C4)nc3c2)cc1 (centres unmarked) [Example 84, 3-(6-(4-Cyanophenyl)-3H-imidazo[4,5-b]pyridin-2-yl)pyrrolidine-1-carbonitrile] | 0.1 to 1
28 | N#CN1CCC(c2n[nH]c(-c3cccc(-c4ccccc4)c3)n2)C1 (centres unmarked) [Example 111, 3-(3-([1,1′-Biphenyl]-3-yl)-1H-1,2,4-triazol-5-yl)pyrrolidine-1-carbonitrile] | < 0.1
29 | Cc1noc(C)c1-c1ccn2c(C3CCN(C#N)C3)cnc2c1 (centres unmarked) [Example 125, 3-(7-(3,5-Dimethylisoxazol-4-yl)imidazo[1,2-a]pyridin-3-yl)pyrrolidine-1-carbonitrile] | 1 to 10
30 | CS(=O)(=O)c1ccc(-c2cccc(-c3nc(C4CCCN4C#N)no3)c2)cc1 (centres unmarked) [Example 153, 2-(5-(4′-(Methylsulfonyl)-[1,1′-biphenyl]-3-yl)-1,2,4-oxadiazol-3-yl)pyrrolidine-1-carbonitrile] | 0.1 to 1
31 | N#Cc1ccc(-c2cnc3[nH]c(C4CCN(C#N)C4)nc3c2)cc1 (single isomer, unassigned) [Example 91, 3-(6-(4-Cyanophenyl)-3H-imidazo[4,5-b]pyridin-2-yl)pyrrolidine-1-carbonitrile] | 0.1 to 1
32 | N#Cc1cnn(-c2cncc(-c3nc([C@@H]4CCCN4C#N)no3)n2)c1 [Example 202, (S)-1-(6-(3-(1-Cyanopyrrolidin-2-yl)-1,2,4-oxadiazol-5-yl)pyrazin-2-yl)-1H-pyrazole-4-carbonitrile] | 0.1 to 1
33 | N#CN1CCC(c2cc(-c3cccc(-c4ccccc4)c3)no2)C1 (centres unmarked) [Example 117, 3-(3-([1,1′-Biphenyl]-3-yl)isoxazol-5-yl)pyrrolidine-1-carbonitrile] | < 0.1
34 | N#CN1CCC[C@H]1c1nc2cc(-c3cccc([N+](=O)[O-])c3)ccc2o1 [Example 136, (S)-2-(5-(3-Nitrophenyl)benzo[d]oxazol-2-yl)pyrrolidine-1-carbonitrile] | 0.1 to 1
35 | N#CN1CCC(c2cnc3cc(-c4ccccc4)ccn23)C1 (centres unmarked) [Example 124, 3-(7-Phenylimidazo[1,2-a]pyridin-3-yl)pyrrolidine-1-carbonitrile] | 0.1 to 1
36 | N#CN1CCC(c2nc3ccc(-c4ccc(C(N)=O)cc4)cc3[nH]2)C1 (centres unmarked) [Example 74, 4-(2-(1-Cyanopyrrolidin-3-yl)-1H-benzo[d]imidazol-6-yl)benzamide] | 0.1 to 1
37 | N#Cc1ccc(-c2cccc(-c3nc([C@@H]4CCCN4C#N)no3)n2)cc1 [Example 175, (S)-2-(5-(6-(4-Cyanophenyl)pyridin-2-yl)-1,2,4-oxadiazol-3-yl)pyrrolidine-1-carbonitrile] | < 0.1
38 | C[C@@H]1CN(C#N)C[C@H]1c1nc(-c2ccccc2)n[nH]1 (relative stereo) [Example 113, Trans 3-methyl-4-(3-phenyl-1H-1,2,4-triazol-5-yl)pyrrolidine-1-carbonitrile] | 1 to 10
39 | C[C@H]1CN(C#N)C[C@@H]1c1[nH]nc(-c2cccc(-c3ccccc3)c2)c1F [Example 23] | 0.1 to 1
40 | N#CN1C[C@@H](c2cc(-c3cccc(-c4ccccc4)c3)n[nH]2)[C@H](C2CC2)C1 (relative stereo) [Example 46, Trans-3-(3-([1,1′-biphenyl]-3-yl)-1H-pyrazol-5-yl)-4-cyclopropylpyrrolidine-1-carbonitrile] | 0.1 to 1
41 | Cc1noc(C)c1-c1cccc(-c2nc(C3CCCN3C#N)no2)c1 (centres unmarked) [Example 147, 2-(5-(3-(3,5-Dimethylisoxazol-4-yl)phenyl)-1,2,4-oxadiazol-3-yl)pyrrolidine-1-carbonitrile] | 1 to 10
